Laboratory results reported in ChEMBL document CHEMBL3885861, “Open TG-GATES”.

Species on record: Rattus norvegicus
Test: Open TG-GATES - Regimen: Daily Repeat
Type: toxicity, organism-based, Sprague-Dawley
Set-up: regimen Daily Repeat, gender Male, age 6 weeks
Settings: in vivo, po, route gavage; for APTT / Bas / Eos / Fbg / Hb / Ht / Lym / MCHC / MCV / Mono / Neu / PT / Plat / RBC / Ret / WBC: tissue Blood; for KIDNEY_L / KIDNEY_R / KIDNEY_TOTAL: tissue Kidney; for LIVER: tissue Liver; for ALP / ALT / AST / BUN / CRE / Ca / Cl / DBIL / GLC / IP / K / LDH / Na / PL / RALB / TBIL / TG / TP / gamma-GTP: tissue Plasma
[1] = 0 mg/kg, 72 h, dose level Control, time 3 day
[2] = 0 mg/kg, […], dose level Control, time 7 day
[3] = 0 mg/kg, […], dose level Control, time 14 day
[4] = 0 mg/kg, […], dose level Control, time 28 day
[5] = 100 mg/kg, 72 h, dose level Low, time 3 day
[6] = 100 mg/kg, […], dose level Low, time 7 day
[7] = 100 mg/kg, […], dose level Low, time 14 day
[8] = 100 mg/kg, […], dose level Low, time 28 day

## CN(C)C(=N)N=C(N)N [METFORMIN]
[1]
  TERMINAL_BW: 224.4 g
  APTT: 16.8 s
  Bas: 0.2%
  Eos: 1%
  Fbg: 246.8 mg/dL
  Hb: 13.1 g/dL
  Ht: 38.7%
  Lym: 75.4%
  MCHC: 34%
  MCV: 64.1 fL
  Mono: 3.4%
  Neu: 19.6%
  PT: 12.6 s
  Plat: 121.6 x10_4/uL
  RBC: 603.2 x10_4/ul
  Ret: 6.9%
  WBC: 114.3 x10_2/uL
  KIDNEY_L: 1 g
  KIDNEY_R: 1 g
  KIDNEY_TOTAL: 2 g
  LIVER: 10.6 g
  ALP: 1345.6 IU/L
  ALT: 69.8 IU/L
  AST: 80.6 IU/L
  BUN: 13 mg/dL
  CRE: 0.2 mg/dL
  Ca: 11 mg/dL
  Cl: 104.6 meq/L
  DBIL: 0.014 mg/dL
  GLC: 184.8 mg/dL
  IP: 8.5 mg/dL
  K: 4 meq/L
  LDH: 69.8 IU/L
  Na: 140.8 meq/L
  PL: 143.6 mg/dL
  RALB: 2.5 g/dL
  TBIL: 0.034 mg/dL
  TG: 71.2 mg/dL
  TP: 5.5 g/dL
  gamma-GTP: 1 IU/L
[2]
  TERMINAL_BW: 255.4 g
  APTT: 16.6 s
  Bas: 0%
  Eos: 1.2%
  Fbg: 272.8 mg/dL
  Hb: 13.6 g/dL
  Ht: 40.1%
  Lym: 77.8%
  MCHC: 34%
  MCV: 64.1 fL
  Mono: 3%
  Neu: 17.6%
  PT: 12 s
  Plat: 126.8 x10_4/uL
  RBC: 626.4 x10_4/ul
  Ret: 6%
  WBC: 90.7 x10_2/uL
  KIDNEY_L: 1 g
  KIDNEY_R: 1 g
  KIDNEY_TOTAL: 2.1 g
  LIVER: 11.7 g
  ALP: 1433.2 IU/L
  ALT: 43.2 IU/L
  AST: 69.6 IU/L
  BUN: 16.4 mg/dL
  CRE: 0.2 mg/dL
  Ca: 11.3 mg/dL
  Cl: 105.2 meq/L
  DBIL: 0.014 mg/dL
  GLC: 187 mg/dL
  IP: 7.8 mg/dL
  K: 4.3 meq/L
  LDH: 66.6 IU/L
  Na: 141.4 meq/L
  PL: 145.2 mg/dL
  RALB: 2.7 g/dL
  TBIL: 0.034 mg/dL
  TG: 91 mg/dL
  TP: 5.9 g/dL
  gamma-GTP: 1 IU/L
[3]
  TERMINAL_BW: 310.2 g
  APTT: 18.3 s
  Bas: 0%
  Eos: 0.8%
  Fbg: 252.2 mg/dL
  Hb: 14.1 g/dL
  Ht: 40.7%
  Lym: 77.8%
  MCHC: 34.5%
  MCV: 60.5 fL
  Mono: 3.4%
  Neu: 17.4%
  PT: 12.3 s
  Plat: 123 x10_4/uL
  RBC: 674 x10_4/ul
  Ret: 4.8%
  WBC: 104.1 x10_2/uL
  KIDNEY_L: 1.2 g
  KIDNEY_R: 1.2 g
  KIDNEY_TOTAL: 2.4 g
  LIVER: 14.4 g
  ALP: 1342.2 IU/L
  ALT: 43.2 IU/L
  AST: 81 IU/L
  BUN: 16.4 mg/dL
  CRE: 0.2 mg/dL
  Ca: 11 mg/dL
  Cl: 105.2 meq/L
  DBIL: 0.014 mg/dL
  GLC: 188.2 mg/dL
  IP: 7.1 mg/dL
  K: 4 meq/L
  LDH: 168 IU/L
  Na: 142.8 meq/L
  PL: 150.6 mg/dL
  RALB: 2.7 g/dL
  TBIL: 0.034 mg/dL
  TG: 139.2 mg/dL
  TP: 6 g/dL
  gamma-GTP: 1 IU/L
[4]
  TERMINAL_BW: 386.6 g
  APTT: 17.2 s
  Bas: 0.2%
  Eos: 1.4%
  Fbg: 260 mg/dL
  Hb: 15 g/dL
  Ht: 43.2%
  Lym: 78.6%
  MCHC: 34.7%
  MCV: 56.9 fL
  Mono: 2.6%
  Neu: 16.8%
  PT: 12.1 s
  Plat: 103.4 x10_4/uL
  RBC: 759.6 x10_4/ul
  Ret: 2.5%
  WBC: 118 x10_2/uL
  KIDNEY_L: 1.4 g
  KIDNEY_R: 1.4 g
  KIDNEY_TOTAL: 2.8 g
  LIVER: 15.6 g
  ALP: 1085 IU/L
  ALT: 41.8 IU/L
  AST: 60.8 IU/L
  BUN: 16 mg/dL
  CRE: 0.2 mg/dL
  Ca: 11.1 mg/dL
  Cl: 105.4 meq/L
  DBIL: 0.014 mg/dL
  GLC: 176.2 mg/dL
  IP: 6.6 mg/dL
  K: 3.9 meq/L
  LDH: 51.8 IU/L
  Na: 145 meq/L
  PL: 143.4 mg/dL
  RALB: 2.7 g/dL
  TBIL: 0.036 mg/dL
  TG: 134.2 mg/dL
  TP: 6.1 g/dL
  gamma-GTP: 1 IU/L
[5]
  TERMINAL_BW: 222.9 g
  APTT: 16.7 s
  Bas: 0.2%
  Eos: 0.6%
  Fbg: 255 mg/dL
  Hb: 13.3 g/dL
  Ht: 39.3%
  Lym: 79%
  MCHC: 33.9%
  MCV: 64.1 fL
  Mono: 3%
  Neu: 16.6%
  PT: 12.6 s
  Plat: 114.7 x10_4/uL
  RBC: 612.6 x10_4/ul
  Ret: 6.7%
  WBC: 119.8 x10_2/uL
  KIDNEY_L: 0.9 g
  KIDNEY_R: 0.9 g
  KIDNEY_TOTAL: 1.9 g
  LIVER: 10.6 g
  ALP: 1574.6 IU/L
  ALT: 56.2 IU/L
  AST: 78.6 IU/L
  BUN: 15 mg/dL
  CRE: 0.2 mg/dL
  Ca: 11 mg/dL
  Cl: 105.6 meq/L
  DBIL: 0.012 mg/dL
  GLC: 173.2 mg/dL
  IP: 8.3 mg/dL
  K: 4 meq/L
  LDH: 80.4 IU/L
  Na: 141.8 meq/L
  PL: 141.6 mg/dL
  RALB: 2.6 g/dL
  TBIL: 0.03 mg/dL
  TG: 72.8 mg/dL
  TP: 5.5 g/dL
  gamma-GTP: 1 IU/L
[6]
  TERMINAL_BW: 255.8 g
  APTT: 18.8 s
  Bas: 0%
  Eos: 1%
  Fbg: 277.8 mg/dL
  Hb: 13.6 g/dL
  Ht: 40.1%
  Lym: 77.8%
  MCHC: 33.9%
  MCV: 63 fL
  Mono: 3.4%
  Neu: 17.8%
  PT: 12.1 s
  Plat: 130 x10_4/uL
  RBC: 638 x10_4/ul
  Ret: 5.1%
  WBC: 97.2 x10_2/uL
  KIDNEY_L: 1 g
  KIDNEY_R: 1 g
  KIDNEY_TOTAL: 2.1 g
  LIVER: 12.7 g
  ALP: 1216.2 IU/L
  ALT: 59.4 IU/L
  AST: 80.2 IU/L
  BUN: 15.2 mg/dL
  CRE: 0.2 mg/dL
  Ca: 10.8 mg/dL
  Cl: 105.8 meq/L
  DBIL: 0.012 mg/dL
  GLC: 189.8 mg/dL
  IP: 7.9 mg/dL
  K: 4.1 meq/L
  LDH: 69.6 IU/L
  Na: 142 meq/L
  PL: 144 mg/dL
  RALB: 2.6 g/dL
  TBIL: 0.028 mg/dL
  TG: 96.4 mg/dL
  TP: 5.7 g/dL
  gamma-GTP: 0.8 IU/L
[7]
  TERMINAL_BW: 319.6 g
  APTT: 17.4 s
  Bas: 0%
  Eos: 1.2%
  Fbg: 255.2 mg/dL
  Hb: 13.9 g/dL
  Ht: 40.1%
  Lym: 77.6%
  MCHC: 34.6%
  MCV: 60.5 fL
  Mono: 2.8%
  Neu: 17.6%
  PT: 12.2 s
  Plat: 122.5 x10_4/uL
  RBC: 662.2 x10_4/ul
  Ret: 5%
  WBC: 109.5 x10_2/uL
  KIDNEY_L: 1.3 g
  KIDNEY_R: 1.3 g
  KIDNEY_TOTAL: 2.6 g
  LIVER: 15.1 g
  ALP: 1413 IU/L
  ALT: 51.8 IU/L
  AST: 70.6 IU/L
  BUN: 16.2 mg/dL
  CRE: 0.2 mg/dL
  Ca: 11 mg/dL
  Cl: 104 meq/L
  DBIL: 0.014 mg/dL
  GLC: 182.4 mg/dL
  IP: 7.2 mg/dL
  K: 3.9 meq/L
  LDH: 78.6 IU/L
  Na: 142.6 meq/L
  PL: 161 mg/dL
  RALB: 2.7 g/dL
  TBIL: 0.03 mg/dL
  TG: 116 mg/dL
  TP: 6 g/dL
  gamma-GTP: 1.2 IU/L
[8]
  TERMINAL_BW: 415.8 g
  APTT: 17.7 s
  Bas: 0.2%
  Eos: 1%
  Fbg: 259.2 mg/dL
  Hb: 15 g/dL
  Ht: 43%
  Lym: 76.6%
  MCHC: 34.8%
  MCV: 56.3 fL
  Mono: 3%
  Neu: 18.6%
  PT: 11.9 s
  Plat: 100.3 x10_4/uL
  RBC: 764.2 x10_4/ul
  Ret: 2.6%
  WBC: 134 x10_2/uL
  KIDNEY_L: 1.5 g
  KIDNEY_R: 1.5 g
  KIDNEY_TOTAL: 3 g
  LIVER: 17.9 g
  ALP: 1072.4 IU/L
  ALT: 46.4 IU/L
  AST: 67.8 IU/L
  BUN: 17.4 mg/dL
  CRE: 0.2 mg/dL
  Ca: 11.2 mg/dL
  Cl: 104.6 meq/L
  DBIL: 0.014 mg/dL
  GLC: 184.2 mg/dL
  IP: 6.7 mg/dL
  K: 3.9 meq/L
  LDH: 56.8 IU/L
  Na: 145.6 meq/L
  PL: 165.4 mg/dL
  RALB: 2.8 g/dL
  TBIL: 0.04 mg/dL
  TG: 183.8 mg/dL
  TP: 6.3 g/dL
  gamma-GTP: 1 IU/L
